{"source": "paper PMC5398914", "about": "(Nature, 2017)", "molecular_target": "T1, OxsB + OxsA (OxsA/OxsB) (Priestia megaterium, UniProt O24770)", "T1 sequence (O24770 1-744)": "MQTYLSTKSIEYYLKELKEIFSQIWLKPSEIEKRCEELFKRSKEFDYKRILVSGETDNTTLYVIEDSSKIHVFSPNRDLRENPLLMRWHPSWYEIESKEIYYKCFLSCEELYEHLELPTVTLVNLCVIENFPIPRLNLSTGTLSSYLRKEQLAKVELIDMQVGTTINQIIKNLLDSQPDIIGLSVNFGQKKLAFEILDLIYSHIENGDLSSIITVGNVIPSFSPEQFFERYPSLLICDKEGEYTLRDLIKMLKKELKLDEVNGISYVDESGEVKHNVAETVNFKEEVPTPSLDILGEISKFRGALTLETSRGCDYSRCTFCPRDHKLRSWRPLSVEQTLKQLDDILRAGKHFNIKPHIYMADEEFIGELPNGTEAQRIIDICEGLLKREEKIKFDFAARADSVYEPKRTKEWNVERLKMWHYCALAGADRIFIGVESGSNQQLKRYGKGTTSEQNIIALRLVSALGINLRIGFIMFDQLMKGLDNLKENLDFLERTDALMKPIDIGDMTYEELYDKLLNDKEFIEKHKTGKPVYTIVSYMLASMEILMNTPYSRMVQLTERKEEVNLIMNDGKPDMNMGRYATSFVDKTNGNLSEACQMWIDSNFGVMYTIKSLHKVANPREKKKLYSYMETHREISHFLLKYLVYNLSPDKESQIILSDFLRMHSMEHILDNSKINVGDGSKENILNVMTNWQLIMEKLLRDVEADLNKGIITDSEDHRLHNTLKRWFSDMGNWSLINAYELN", "assay": "HPLC product detection, MS and NMR", "assay_type": "biochemical", "settings": "AdoMet, HO-Cbl, MgCl2, DTT, NADPH / methyl viologen"}
{"smiles": "Nc1ncnc2c1ncn2[C@H]1C[C@H](O)[C@@H](COP(=O)(O)O)O1", "note": "[dAMP]", "values": [{"measurement": "HPLC product detection, MS and NMR", "value": "identify dAMP, dADP and dATP as OXT-A precursors"}]}
